From publication PMC9964390, “Design, Synthesis and Phenotypic Profiling of Simplified Gedatolisib Analogues” (Pharmaceuticals, 2023) come the findings set out here.

Data set [1] concerns PI3K activation and phosphorylation in MOLT-4 cell line. The experiment in a line: Muse PI3K Activation Dual Detection Kit. Format: cell-based, human. As to conditions: MOLT-4, concentration 10 times lower than its CC50. The method, then: The methodology evaluates the activation and phosphorylation of PI3K and was performed from the labelling with the Guava Muse Luminex® PI3K Activation Dual Detection Kit (catalog n^o. MCH200103, Luminex) containing the anti-AKT/PKB-PECy5 antibody to measure total PI3K and the anti-phospho-AKT (Ser473)-Alexa Fluor® 555 antibody for measurement of activated PI3K.
Following 48 h of incubation in an incubator at 37 °C with 5% CO2, 1 mL of the cell solution was transferred to an Eppendorf tube, washed with PBS and centrifuged at 300× g for 5 min. The supernatant was discarded, and the pellet formed was resuspended in 500 µL of PBS. The samples were again centrifuged at 300× g for 5 min and the supernatant discarded.
Then the cell solutions were resuspended in 200 µL of assay buffer (Part no. CS202124), followed by the addition of 200 µL of fixation buffer (Part n^o. CS202122), ending up with a total volume of 400 µL per sample. The samples were incubated for 5 min on ice and centrifuged at 300× g for 5 min and the supernatant discarded.
Cells were permeabilized by adding 200 µL of ice-cold permeabilization buffer (Part n^o. CS202125) and then incubated on ice for 5 min and centrifuged at 300× g for 5 min, and the supernatant was discarded. The formed pellets were resuspended in 450 µL of assay buffer and vortexed at medium speed. In total, 90 µL of the solution from each sample was aliquoted into a new tube, and 10 µL of the cocktail solution containing Anti-phospho-Akt (Ser473), Alexa Fluor®555 and Anti-Akt/PKB, Pecy5 was added. The samples were homogenised and incubated for 30 min in the dark at room temperature.
After the incubation step, 100 µL of assay buffer was added per sample and centrifuged at 300× g for 5 min, and the supernatant was discarded. The formed pellets were resuspended in 200 µL of assay buffer and vortexed, and the samples were read in Guava Muse Luminex®. Data from three independent experiments performed in duplicate were analysed in the Prism6 program to determine the percentage of cells expressing activated and inactivated PI3K.

The subject of data set [2] is PC-3, MCF7, K562, CCRF-CEM and MOLT-4. As to the kind of experiment: MTT single-concentration cytotoxicity screening. Format: cell-based, human. The note with it: single concentration 30 μM; reduction in cell viability ≥ 50% selected for CC50. The protocol: In a first approach, the assay was validated with two standard drugs: gedatolisib and GSK-1059615.
After understanding the response profile of the selected cell lines to the treatment with gedatolisib and GSK-1059615, we investigated the cytotoxic activity of compounds 5a-f at a single concentration (30 μM). […] During the experiments, compounds 5a (LASSBio-2250), 5b (LASSBio-2251) and 9 (CAS-942789959) were insoluble and precipitated on the culture medium. Therefore, they were evaluated also at the screening concentration of 1 μM.
Cell viability was assessed by the MTT assay. The lines selected for this study were plated according to their respective densities, which ranged from 3 × 10^4 to 4 × 10^4 cells per well. Subsequently, they were treated with test compounds at different concentrations (0.00003 μM to 150 μM), gedatolisib and GSK-1059615.
After incubation, the plates are centrifuged at 440× g for 10 min. Then, 110 μL of the supernatant was withdrawn and each well received 10μL of the MTT solution. The plate was again incubated in an oven at 37 °C and 5% CO2 for 3 to 4 h. At the end of the incubation time, 100 μL of SDS-HCL detergent was added to solubilize the formazan crystals. The plate was shaken on an automatic overnight shaker and then read at a wavelength of 595 nm on the Molecular Devices Spectramax M5 plate reader.

Data set [3] can be described thus: pH-dependent aqueous solubility (UV spectrophotometry). Format: physicochemical. The note with it: aqueous buffer, thermodynamic from solid, 37 °C. The method, then:
A stock solution of the target compound was prepared by dissolving 1 mg in methanol, and the wavelength of greatest absorption of each compound was obtained by scanning between wavelengths from 200 nm to 500 nm. Six dilutions were prepared from the stock solution and the absorbance reading in the UV spectrophotometer (SpectraMax M5, Molecular Devices, USA). The calibration curve with linear regression was created with the values obtained, and the solubility test was measured by correlating the concentration with the absorbance obtained by ultraviolet. Each compound was added in excess at phosphate buffer solution pH 5.8 and 7.4 to obtain a supersaturated solution that was kept under stirring for 4 h at 37 °C and then was filtered through a 0.45 µm filter for reading at the corresponding wavelengths. The solubility was determined through the equation of the straight line obtained by the linear regression of the calibration curve of the compounds [24, 25].

≈ marks a conversion by molar mass, not a printed value. Where two headings read alike, the source gives them in different places.

A word on the solubility: it is the concentration that dissolves in the medium under given conditions.

Turning to `c1ccc(N2CCN(c3nc(N4CCCNCC4)nc(N4CCOCC4)n3)CC2)cc1` [5f, 4-(4-(1,4-Diazepan-1-yl)-6-(4-phenylpiperazin-1-yl)-1,3,5-triazin-2-yl)morpholine], in data set [1], the “reduction of PI3K-mediated phosphorylation” value worked out at 79%. Also, the “cytotoxic effect on leukemia cell lines at single concentration” value in data set [2] is listed as “cytotoxic effect”. In addition, the solubility at 4 h was 39.3 µM (≈ 16.7 µg/mL) in data set [3] (phosphate buffer pH 5.8 (duodenum), read-out: Solubility pH 5.8) and 42.4 µM (≈ 18 µg/mL) in data set [3] (phosphate buffer pH 7.4 (plasma), read-out: Solubility pH 7.4).
